Experimental data as given in US10179928B2, “Methods and tests for screening bacterial biofilms” (Helmholtz-Zentrum fuer Infektionsforschung GmbH, priority 2009, dated 2019).
Values after ≈ are worked out from the molar mass of the structure shown.

How the values were obtained:
[1] = tested on: P. aeruginosa PA14 and five clinical strains; assay: CFU determinations of whole well content (planktonic and biofilm bacteria); format: cell-based, Pseudomonas aeruginosa
[2] = tested on: P. aeruginosa PA14 and five clinical CF isolates (planktonic); assay: Planktonic MIC determination with the semi-automated Vitek2 system; settings: for MIC: Pseudomonas aeruginosa, Vitek2
Protocol: Clinical isolates were recovered from the respiratory tracts of chronically infected people with CF at the Hannover Medical School and differed according to morphology and resistance profile. The MICs were determined by the use of the semi-automated Vitek2 system (Biomerieux).

[3] = tested on: P. aeruginosa biofilms (PA14 and five clinical CF isolates); assay: Biofilm susceptibility test: 96-well biofilm, BacLight (Syto9/PI) staining, automated CLSM, PHLIP biovolume analysis; format: cell-based, Pseudomonas aeruginosa
Protocol: The evening before the inoculation of the 96-well microtitre plates, inoculate bacteria from a single colony into 2 ml of LB medium in a tube and incubate the preculture in an orbital shaker (180 r.p.m.) at 37° C. overnight (˜16 h). The next morning, prepare a subculture from the overnight culture by diluting it with fresh LB medium to an OD600 of 0.02. The total volume of the inoculated medium depends on the number of replicates and the number of antibiotics or antibiotic dilutions to be tested for this isolate. II. Biofilm Growth Take off the lid of the designated number of sterile half-area μClear microtitre plates and use 100 μl per well of the diluted overnight culture(s) (Step 2) to inoculate the wells (testing different antibiotics, antibiotic dilutions and a minimum of two replicates for each combination). Thereafter, seal the plate(s) with an air-permeable cover foil (no lid) and incubate for 24 h at 37° C. in an incubator with humid atmosphere. III. Antibiotic-Treatment of the Biofilms After 24 h of growth, the biofilms within the wells of the microtitre plate were exposed to antibiotics. Stock solutions of the chosen antibiotics in LB medium were prepared and two-fold serial dilutions in fresh LB-medium were performed. […] To add the antibiotic dilutions to the microtitre plates, the plates were taken out of the incubator into a safety cabinet. The cover foil was removed and 40 μl antibiotic solution to the appropriate well (different antibiotics/concentrations) were added except to the control well(s) where only LB is added. IV. Staining of the Biofilms Prepare staining solution as described above (see REAGENT SETUP). […] Cover the microtitre plate with a fresh air-permeable foil and return the plate to the incubator. Continue incubation for 24 h at 37° C. before imaging. Immediately before microscopy (after ˜48 h total incubation time), remove the microtitre plate with treated biofilms from the incubator. V. Microscopy Automated Run or Manual Run When using the automated confocal Opera system, two positions at the center of each well are chosen automatically to acquire z-stacks of the biofilms. […] Focal planes are acquired starting from the bottom of the plate (position 0) with an interplane distance (z-step size) of 3 μm (using a 40×/0.85 numerical-aperture (NA) air objective). Syto9 is excited with a 488-nm laser and detected with a 540/75 nm band-pass emission filter, whereas PI is excited at 561 nm and detected with a 600/40 nm band-pass emission filter. If a non-automated confocal microscope is used, choose adequate filter settings for Syto9 and PI. To enhance comparability, biofilm images should be recorded at the center of a well. In a manual process, due to time reasons image acquisition might be reduced to one stack per well if 2-3 replicates of the same sample are present within the plate. VI. Data Analysis Computer Calculation Save the image stacks as single .bmp image files (image files may require conversion, for example, with MATLAB software). Batch-process all images using a background subtraction tool (for example, the ‘Subtract Background’ command in ImageJ). Following background subtraction, use an Otsu-thresholding algorithm to obtain thresholded binary images (8-bit format). Reduce the appearance of planktonic bacteria and outlying pixels with a noise filter (such as the ‘Remove Outliers’ command in ImageJ). Steps 11-13 are exemplified in Supplementary FIG. 1. Reassemble the image stacks from the individual processed binary images for each position and channel with Auto PHLIP-ML software. Use the MATLAB-based tool PHLIP (without connected volume filtration) to calculate descriptive parameters of biofilms (including biovolume, substratum coverage, area-to-volume ratio, spatial spreading and 3D colocalization) from the integrated total of each individual slice of a thresholded z-stack.

[4] = tested on: mixed bacterial communities from sputum specimens of two cystic fibrosis patients; assay: Multi species biofilm susceptibility test of sputum specimens; format: cell-based; settings: one sputum sample; 1 mg ml−1

Molecule | MIC ([2]; isolate 5497, planktonic) [µg/mL] | MIC ([2]; isolate 5520, planktonic) [µg/mL] | MIC ([2]; isolate 5522, planktonic) [µg/mL] | MIC ([2]; isolate 5524, planktonic) [µg/mL] | MIC ([2]; isolate 5529, planktonic) [µg/mL] | MIC ([2]; isolate PA14, planktonic) [µg/mL] | MIC interpretation category ([2]; isolate 5497, Vitek2) | MIC interpretation category ([2]; isolate 5520, Vitek2) | MIC interpretation category ([2]; isolate 5522, Vitek2) | MIC interpretation category ([2]; isolate 5524, Vitek2) | MIC interpretation category ([2]; isolate 5529, Vitek2) | MIC interpretation category ([2]; isolate PA14, Vitek2) | biofilm response ([3]; isolate 5497) | also measured
CC(C)(O/N=C(\C(=O)N[C@@H]1C(=O)N2C(C(=O)[O-])=C(C[n+]3ccccc3)CS[C@H]12)c1csc(N)n1)C(=O)O [ceftazidime] | 1 (≈ 1.83 µM) | 4 (≈ 7.32 µM) | 4 (≈ 7.32 µM) | 2 (≈ 3.66 µM) | ≤ 1 | ≤ 1 | S | S | S | S | S | S | ✓ (Biofilms were categorized as responsive (✓) if a consistent increase in the fraction of red and yellow (colocalized) fluorescenct biovolume (reaching ~ 80% of the total biovolume) within a given antibiotic concentration range was detected.) | CFU count ([1]; strain 5497): 10^6 cells per ml; CFU count ([1]; strain PA14, without correlated imaging data): 10^6 cells per ml; RY biovolume of the total biovolume ([3]; strain 5497): ~80%
CC(C)O [isopropanol] | – | – | – | – | – | – | – | – | – | – | – | – | – | killing verified by CFU counts ([1]; biofilms of three clinical isolates): efficiently killed; fraction of green fluorescence in killed biofilm ([3]; biofilms of three clinical isolates, killing control): 10-20%
C[C@@H](O)[C@H]1C(=O)N2C(C(=O)O)=C(S[C@@H]3CN[C@H](C(=O)N(C)C)C3)[C@H](C)[C@H]12 [meropenem] | ≤ 0.25 | 0.5 (≈ 1.3 µM) | 2 (≈ 5.22 µM) | ≤ 0.25 | 1 (≈ 2.61 µM) | ≤ 0.25 | S | S | S | S | S | S | – | CFU counts ([1]; strain 5529 at 128 μg ml−1): ~10^6 cells per ml; susceptibility under biofilm growth conditions ([3]; all strains): resistance
NC[C@H]1O[C@H](O[C@H]2[C@H](O)[C@@H](O[C@H]3O[C@H](CO)[C@@H](O)[C@H](N)[C@H]3O)[C@H](N)C[C@@H]2N)[C@H](N)C[C@@H]1O [tobramycin] | ≤ 0.25 | 1 (≈ 2.14 µM) | > 32 | 1 (≈ 2.14 µM) | > 32 | 1 (≈ 2.14 µM) | S | S | R | S | R | S | ✓ (Biofilms were categorized as responsive (✓) if a consistent increase in the fraction of red and yellow (colocalized) fluorescenct biovolume (reaching ~ 80% of the total biovolume) within a given antibiotic concentration range was detected.) | change in CFUs ([1]; strains 5522, 5524 and 5529, low antibiotic concentrations): minor decrease; CFU counts ([1]; strains PA14, 5497 and 5520, increasing concentrations): ≤ 10^5 cells per ml; biofilm response ([3]; isolate 5520): ✓ (Biofilms were categorized as responsive (✓) if a consistent increase in the fraction of red and yellow (colocalized) fluorescenct biovolume (reaching ~ 80% of the total biovolume) within a given antibiotic concentration range was detected.); biofilm response ([3]; isolate PA14): ✓ (Biofilms were categorized as responsive (✓) if a consistent increase in the fraction of red and yellow (colocalized) fluorescenct biovolume (reaching ~ 80% of the total biovolume) within a given antibiotic concentration range was detected.); fraction of the RY biovolume of the total biovolume ([3]; strain 5529 at 512 μg ml−1): ~80%; fraction of the RY (red+yellow) biovolume of the total biovolume ([3]; strains PA14, 5497 and 5520, increasing concentrations, 2-512 μg ml−1): ~80%
colistin | – | – | – | – | – | – | – | – | – | – | – | – | – | biofilm responsiveness [4]: responsive
